This note sets out measurements from US20160287646A1, “MACROALGAE COMPOSITIONS, PROCESSES FOR PREPARATION THEREOF, AND USES IN SPORTS NUTRITION” (OmniActive Health Technologies (Canada) Limited, priority 2015, published 2016).

The test system of assay [1] is C2C12 cells. Kind of assay: Mitochondrial mass (NAO probe fluorescence) in differentiated C2C12 cells. It counts as cell-based, mouse. The conditions noted are these: fluorescent intensity relative to untreated control. As for the experimental part: (§1) Mouse skeletal myoblasts C2C12 cells were used as a cell model to assess mitochondrial function and IGF-1 expression. Cells were cultured as undifferentiated myoblasts in high-serum growth media DMEM (Dulbecco's Modified Eagle Medium), supplemented with 10% FBS (Fetal bovine serum) and 1% penicillin/streptomycin. Cells were grown to full confluency at 37° C. in a humidified incubator with 5% CO2.
The effect of treatment with macroalgae composition on mitochondrial mass was assessed by measuring changes in fluorescent intensity in differentiated C2C12 cells. The nonylacridine orange (NAO) probe binds to cardiolipin in all mitochondria, regardless of their energetic state, providing a measure of mitochondrial mass and an indication of mitochondrial biogenesis. C2C12 cells were seeded in 96-well culture plates at a density of 2×10^4 cells/mL, induced to differentiate, and pre-treated with or without select macroalgae composition and controls. […] Probe fluorescence was measured (excitation 380 nm, emission 645 nm) using a fluorescence plate reader. Fluorescent intensity relative to untreated control was then calculated. To standardize probe fluorescence to protein content of the cells, total protein content (in μg) was assessed by bicinchoninic acid (BCA) using bovine serum albumin as standard.

In assay [2] the test system is C2C12 cells. As to the kind of experiment: Mitochondrial oxygen consumption (MitoXpress probe) in differentiated C2C12 cells. Type of assay: cell-based, mouse. The conditions noted are these: macroalgae composition 100 ug/ml. On the procedure: as §1
Extracellular oxygen consumption in differentiated C2C12 cells was measured by assessing phosphorescence of a porphyrin-based, water soluble, oxygen sensitive probe (MitoXpress®-Xtra-HS, Luxcel Biosciences). Probe fluorescence is quenched by molecular oxygen (O2), resulting in lower probe signal. As cellular respiration reduces the concentration of O2, probe signal increases. The rate of this increase is related to the rate of cellular oxygen consumption. C2C12 cells were seeded in 96-well culture plates at a density of 2×10^4 cells/mL, induced to differentiate, and incubated with MitoXpress probe ([…] the presence or absence of macroalgae composition (100 ug/ml). High sensitivity mineral oil was added (100 μL/well) to increase assay sensitivity by minimizing interference from ambient O2. Probe fluorescence was measured (excitation 380 nm, emission 645 nm) using a fluorescence plate reader.

For assay [3], the system named is insulin-like growth factor-1 (IGF-1). Kind of assay: IGF-1 ELISA in differentiated C2C12 cells. It counts as cell-based, mouse. To be noted: cell culture supernatants. As for the experimental part: as §1
To evaluate the effect of treatment with macroalgae composition on insulin-like growth factor-1 (IGF-1) concentrations in differentiated C2C12 cells, the mouse IGF-1 enzyme-linked immunosorbent assay (ELISA) kit (Sigma) was utilized. The kit provides a quantitative measurement of mouse IGF-1 in cell culture supernatants by employing an antibody specific coated 96-well plate. Standards and samples were added to the coated plate and any IGF-1 present in the sample bound to the immobilized antibody. After washing away any unbound antibody, HRP-conjugated streptavidin was added to the wells. The wells were washed again, followed by addition of a colorimetric TMB reagent. Color developed in proportion to the amount of bound IGF-1. Addition of a stop solution changed the color from blue to yellow, and the color intensity was read at A450 with a microplate reader. Blank-corrected unknown sample protein concentrations were then extrapolated from a known standard curve.
A general note: In an ELISA, binding on a coated surface is turned into a signal by an enzyme label.

A further assay concerns H295R cells. As to the kind of experiment: Cortisol production immunoassay in H295R cells. Type of assay: cell-based, human. To be noted: 24 h incubation. As for the experimental part: It is a human adrenal cell line that presents a steroid secretion pattern and regulation similar to primary cultures of adrenal cells.
Cells were then incubated in the presence or absence of macroalgae composition for 24 h before assessing cortisol production.
To evaluate the effect of treatment with macroalgae composition on cortisol concentrations in H295R cells, the DetectX® (Arbor Assays) immunoassay was utilized. A cortisol standard was provided to generate a standard curve for the assay and all samples were read off the standard curve. Standards or samples were pipetted into a clear microtiter plate coated with an antibody. A cortisol-peroxidase conjugate was added to the standards and samples in the wells. The binding reaction was initiated by the addition of a monoclonal antibody to cortisol to each well. After 1 hour incubation, the plate was washed and substrate was added. The substrate reacted with the bound cortisol-peroxidase conjugate. After a short incubation, the reaction was stopped and the intensity of the generated color was detected in a microtiter plate reader capable of measuring 450 nm wavelength. The concentration of cortisol in the samples was then calculated.

The test system of assay [4] is C2C12 cells. Kind of assay: ATP production colorimetric assay in C2C12 myotubes. The conditions noted are these: extracts 100 ug/mL, caffeine 500 uM, creatine 1 uM, control 99.99. It counts as cell-based, mouse. On the procedure: C2C12 cells (ATCC® CRL-1772) were seeded in 24- or 96-well culture plates as undifferentiated myoblasts and grown to 100% confluency in ATCC-formulated Dulbecco's Modified Eagle's Medium (DMEM) supplemented with 10% heat-inactivated fetal bovine serum (FBS). […] Differentiation medium consisted of ATCC-formulated DMEM supplemented with 2% heat-inactivated horse serum and was changed daily during the differentiation process. Cell culture conditions were maintained at 37° C. in a humidified atmosphere of 5% CO2/95% air. After 5 days of differentiation, cells were incubated in the presence or absence of macroalgae composition (with control). […] The effect of select macroalgae compositions were assessed using the following assays:
To evaluate the effect of macroalgae composition on ATP levels, colorimetric assay kit (Sigma-Aldrich, St. Louis, Mo.) was used, which is an enzyme-linked approach that involves the conversion of ATP in the test sample to ADP via the action of glycerol kinase which catalyses the transfer of the phosphate group to glycerol. The reaction was monitored by use of colorimetric product whose concentration varies proportional to the amount of ATP present. […] After 30 minutes, the absorbance at 570 nm will be measured using a microplate reader, and ATP concentrations will be extrapolated from a standard curve.

The test system of the next assay is PGC-1α. As to the kind of experiment: PGC-1alpha ELISA in differentiated C2C12 cells. It counts as cell-based, mouse. To be noted: overnight treatment, extracts 100 ug/mL, caffeine 500 uM, resveratrol 100 uM, control 100.01. As for the experimental part:
C2C12 cells (ATCC® CRL-1772) were seeded in 24- or 96-well culture plates as undifferentiated myoblasts and grown to 100% confluency in ATCC-formulated Dulbecco's Modified Eagle's Medium (DMEM) supplemented with 10% heat-inactivated fetal bovine serum (FBS). […] Differentiation medium consisted of ATCC-formulated DMEM supplemented with 2% heat-inactivated horse serum and was changed daily during the differentiation process. Cell culture conditions were maintained at 37° C. in a humidified atmosphere of 5% CO2/95% air. After 5 days of differentiation, cells were incubated in the presence or absence of macroalgae composition (with control). Cells were treated with macroalgae compositions and also control samples to check effect on said biomarkers. The compositions and control samples used are mentioned in the respective table, showing results of the test. The effect of select macroalgae compositions were assessed using the following assays: Concentrations of PGC-1α in differentiated C2C12 cells as a result of treatment with macroalgae composition were determined by ELISA (MyBiosource). Following overnight treatment, cell lysates were collected and centrifuged to remove cellular debris. […] The amount of PGC-1α captured by the anti-PGC-1α antibody was determined using a biotinylated-IgG antibody/HRP-streptavidin detection system.

Assay [5] has as its system C2C12 cells. Kind of assay: Glucose uptake bioluminescent assay (2DG6P) in C2C12 cells. It counts as cell-based, mouse. The conditions noted are these: for Glucose Uptake - glucose + insulin: 25 mM glucose + 1 uM insulin, compared to non-treated samples (glucose only 100.0). As for the experimental part:
(§2) C2C12 cells (ATCC® CRL-1772) were seeded in 24- or 96-well culture plates as undifferentiated myoblasts and grown to 100% confluency in ATCC-formulated Dulbecco's Modified Eagle's Medium (DMEM) supplemented with 10% heat-inactivated fetal bovine serum (FBS). […] Differentiation medium consisted of ATCC-formulated DMEM supplemented with 2% heat-inactivated horse serum and was changed daily during the differentiation process. Cell culture conditions were maintained at 37° C. in a humidified atmosphere of 5% CO2/95% air. After 5 days of differentiation, cells were incubated in the presence or absence of macroalgae composition (with control). Cells were treated with macroalgae compositions and also control samples to check effect on said biomarkers. The compositions and control samples used are mentioned in the respective table, showing results of the test. The effect of select macroalgae compositions were assessed using the following assays:
(§3) Glucose uptake in C2C12 cells was determined by bioluminescent assay (Promega), based on the detection of 2-deoxyglucose-6-phosphate (2DG6P). When […] to cells, it is transported across the membrane and rapidly phosphorylated. However, further modification is not possible, resulting in accumulation within the cell. Addition of a 2DG6P detection reagent, leading to the generation of NADPH from 2DG6P, luciferin from NADPH, and light from luciferin, allows for detection of a bioluminescent signal. Overall, the luminescent signal is proportional to the concentration of 2DG6P, and thus the rate of glucose uptake. Glycogen synthesis was determined in cell culture lysates from differentiated C2C12 cells using a colorimetric assay kit from BioVision Inc. This involves the addition of glucoamylase to the samples that hydrolyzes glycogen to glucose; the glucose is then oxidized to form an intermediate that reduces OxiRed, forming a colored product with strong absorbance at 570 nm.

Assay [6] has as its system C2C12 cells. Kind of assay: Glycogen synthesis colorimetric assay in differentiated C2C12 cells. The conditions noted are these: for Glycogen Content - glucose + insulin: 30 mM glucose + 100 nM insulin, compared to non-treated samples (glucose only 100.0); for Glycogen Content - glucose only: 30 mM glucose, compared to non-treated samples (100.0). Type of assay: cell-based, mouse. As for the experimental part: as §2, §3

For the next assay, the system named is Akt. As to the kind of experiment: BioPlex cell signaling assay, relative phosphorylation of Akt (PKB) in C2C12 cells. It counts as cell-based, mouse. To be noted: differentiated C2C12 cells pre-treated 2 hours; ratio of fluorescence of phospho-protein to total protein. As for the experimental part:
(§4) The effects of macroalgae composition on biomarkers of sport nutrition based on protein synthesis platform were evaluated, wherein the compositions were tested with an initial MTT assay (MIT is a name of dye 3-(4,5-dimethylthiazol-2-yl)-2,5-diphenyltetrazolium bromide) to determine cytotoxicity and establish dose range for testing.
(§5) Test inputs chosen for the protein synthesis assay platform were assessed using BioPlex (BioRad) cell signaling assays, based on the principle of the sandwich ELISA. Capture antibodies directed against the desired biomarker were covalently coupled to magnetic beads, which reacted with the sample containing the biomarker of interest. After a series of wash steps to remove any unbound protein, a biotinylated detection antibody was added to create a “sandwich” complex. The final detection complex was formed with the addition of a streptavidin-phycoerythrin (SA-PE) conjugate, which serves as a fluorescent indicator. […] The beads were then re-suspended in assay buffer and read on the BioPlex MAGPIX system. […]
(§6) Phospho-PKB/PKB, Phospho-mTOR/mTOR, Phospho-p70S6k/p70S6k, their effects were more pronounced than creatine or whey protein. In Table 3 below, Phospho-PKB/PKB, Phospho-mTOR/mTOR, and Phospho-p70S6k/p70S6k are expressed as a ratio of the fluorescence of the phospho-protein divided by the fluorescence of the total protein.

Assay [7] concerns mTOR (the mammalian target of rapamycin). Kind of assay: BioPlex cell signaling assay, relative phosphorylation of mTOR in C2C12 cells. Type of assay: cell-based, mouse. To be noted: differentiated C2C12 cells pre-treated 2 hours; ratio of fluorescence of phospho-protein to total protein. On the procedure:
as §4, §5, §6

In the next assay the test system is p70S6k. Kind of assay: BioPlex cell signaling assay, relative phosphorylation of p70S6k in C2C12 cells. Type of assay: cell-based, mouse. The conditions noted are these: differentiated C2C12 cells pre-treated 2 hours; ratio of fluorescence of phospho-protein to total protein. On the procedure: as §4, §5, §6

Regarding `Cn1c(=O)c2c(ncn2C)n(C)c1=O` [Caffeine], the “Mitochondrial Mass” value in the assay with C2C12 cells [1] was 146. The “Mitochondrial Oxygen consumption” value with C2C12 cells [2] came to 157. In assay [3], this compound returned an IGF-1 of 130. In the assay on H295R cells, the Cortisol was determined as 65. Further, in the assay on C2C12 cells [4], the “ATP production, Relative to Control” value is recorded as 225.83. The “PGC1-alpha production, Relative to Control” value with PGC-1α worked out at 192.96. Further, the “Glucose Uptake - glucose + insulin” value in the assay with C2C12 cells [5] was 198.7%. Moreover, in the assay on C2C12 cells [6], the “Glycogen Content - glucose + insulin” value is listed as 164.7% and the “Glycogen Content - glucose only” value stood at 115.3%.

On to `CN(CC(=O)O)C(=N)N` [Creatine], for which the Phospho-PKB/PKB in the assay on Akt is recorded as 191. Moreover, the Phospho-mTOR/mTOR in [7] was 192. Besides, in the assay with p70S6k, the Phospho-p70S6k/p70S6k was 162. In addition, in the assay on C2C12 cells [4], the “ATP production, Relative to Control” value was determined as 233.17.

As to `CC(C)C[C@H](N)C(=O)O` [Leucine], the “Mitochondrial Mass” value with C2C12 cells [1] was 157. The “Mitochondrial Oxygen consumption” value in the assay on C2C12 cells [2] came to 144. The compound further gave an IGF-1 in assay [3] of 127. Also, the Cortisol in the assay on H295R cells was 65.3. In addition, the “Glucose Uptake - glucose + insulin” value in the assay with C2C12 cells [5] is on record as 203.7%. Further, in the assay with C2C12 cells [6], the “Glycogen Content - glucose + insulin” value is recorded as 158.2% and the “Glycogen Content - glucose only” value is 111.1%.

For `Oc1ccc(C=Cc2cc(O)cc(O)c2)cc1` [Resveratrol], the “PGC1-alpha production, Relative to Control” value in the assay on PGC-1α turned out to be 220.96. For the same compound, in the assay on C2C12 cells [5], the “Glucose Uptake - glucose + insulin” value stood at 291.0%. For the same compound, in the assay with C2C12 cells [5] (25 mM glucose, compared to non-treated samples (100.0)), the “Glucose (G) Uptake - glucose only” value amounted to 132.4%. Moreover, in the assay on C2C12 cells [6], the “Glycogen Content - glucose + insulin” value is recorded as 223.9% and the “Glycogen Content - glucose only” value came to 142.9%.

For “Insulin: control in protein synthesis assay; co-stimulus in glucose uptake and glycogen assays”, in the assay on Akt, the Phospho-PKB/PKB was determined as 315. In [7], the Phospho-mTOR/mTOR is given as 311. For the same compound, the Phospho-p70S6k/p70S6k in the assay on p70S6k amounted to 241. Moreover, the “Glucose Uptake - glucose + insulin” value with C2C12 cells [5] is 189.5%. Moreover, the “Glycogen Content - glucose + insulin” value in the assay with C2C12 cells [6] is reported as 153.6%.
